Measured values published in PubChem BioAssay (NCI).
Values joined by “and” are separate entries in the source; they are usually repeats but may differ in a detail not shown here. Identical values can stand only once.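 Cells were grown in 96-well plates and exposed to each compound for 48 hours at five concentrations; endpoints were interpolated linearly between bracketing concentrations, or set to the highest concentration if not reached. Here, GI50 denotes the concentration required for 50% inhibition of growth. Definition used: TGI = concentration required for complete inhibition of growth.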

Experiments:
Test in all cases: NCI anticancer screen, dose series, 48 h
[1] = system: CCRF-CEM leukemia
[2] = system: EKVX NSCLC
[3] = system: HL-60(TB) leukemia
[4] = system: NCI/ADR-RES ovarian
[5] = system: RPMI-8226 leukemia
[6] = system: SF-268 CNS
[7] = system: SF-539 CNS
[8] = system: SK-MEL-5 melanoma
[9] = system: SNB-75 CNS
[10] = system: U251 CNS
[11] = system: UACC-257 melanoma
[12] = system: UO-31 renal
[13] = system: NCI-H226 lung
[14] = system: NCI-H522 lung

For `CCSc1nc(N)c2c(-c3ccc(OC)c(OC)c3)c3c(nc2n1)CCCC3`, the TGI [1] was over 100 µM, the TGI [2] was over 100 µM and the TGI [3] was over 100 µM. For the same molecule, the TGI [4] was over 100 µM, the TGI [5] was over 100 µM and the TGI [6] was over 100 µM. For the same molecule, the TGI [7] was over 100 µM, the TGI [8] was over 100 µM and the TGI [9] was over 100 µM. The TGI [10] was over 100 µM, the TGI [11] was over 100 µM and the TGI [12] was over 100 µM.
`C=CCc1cc(-c2cc(CC=C)c(O)c(CN(CCCl)CCCl)c2)cc(CN(CCCl)CCCl)c1O` gave a TGI [1] of over 100 µM, a TGI [2] of 22.5 µM and a TGI [3] of over 100 µM. For the same molecule, the TGI [13] was 33.5 µM, the TGI [14] was 27.3 µM and the TGI [4] was 78.4 µM. It also gave a TGI [5] of over 100 µM, a TGI [6] of 47.8 µM and a TGI [7] of 36.3 µM. For the same molecule, the TGI [8] was 32.7 µM, the TGI [9] was 58.6 µM and the TGI [10] was 24.8 µM. The TGI [11] was 33.7 µM and the TGI [12] was 32.1 µM.
For `CC(C)(C)NCc1cc(Nc2ccnc3cc(Cl)ccc23)cc(-c2ccc(Cl)cc2)c1O`, the TGI [1] was 5.77 µM, the TGI [2] was 14.8 µM and the TGI [3] was 4.01 µM. It also gave a TGI [13] of 22.3 µM, a TGI [14] of 7.51 µM and a TGI [4] of 14.4 µM. The TGI [5] was 4.12 µM, the TGI [6] was 16.2 µM and the TGI [7] was 3.28 µM. The TGI [8] was 3.15 µM, the TGI [9] was 5.13 µM and the TGI [10] was 8.65 µM. For the same molecule, the TGI [11] was 4.11 µM and the TGI [12] was 18.1 µM.
With `O=C(O)CCCCCCC[C@@H]1S[C@H]1CCCCCCO` the TGI [1] was over 100 µM, the TGI [2] was over 100 µM and the TGI [3] was over 100 µM. It also gave a TGI [13] of over 100 µM, a TGI [14] of over 100 µM and a TGI [4] of over 100 µM. For the same molecule, the TGI [5] was over 100 µM, the TGI [6] was over 100 µM and the TGI [7] was over 100 µM. It also gave a TGI [8] of over 100 µM, a TGI [9] of over 100 µM and a TGI [10] of over 100 µM. It also gave a TGI [11] of over 100 µM and a TGI [12] of over 100 µM.
`COC(=O)CCC(=O)CC(=O)C1=NS(=O)(=O)c2nc(S(N)(=O)=O)c(Cl)cc2N1` gave a TGI [1] of over 100 µM, a TGI [2] of over 100 µM and a TGI [3] of over 100 µM. For the same molecule, the TGI [13] was over 100 µM, the TGI [14] was over 100 µM and the TGI [5] was over 100 µM. For the same molecule, the TGI [6] was over 100 µM, the TGI [7] was over 100 µM and the TGI [8] was over 100 µM. The TGI [9] was over 100 µM, the TGI [10] was over 100 µM and the TGI [11] was over 100 µM. For the same molecule, the TGI [12] was over 100 µM.
Work on `Nc1ccccc1CCCC(=O)O` yielded a TGI [1] of over 100 µM, a TGI [3] of over 100 µM and a TGI [13] of over 100 µM. The TGI [14] was over 100 µM, the TGI [4] was over 100 µM and the TGI [5] was over 100 µM. The TGI [6] was over 100 µM, the TGI [7] was over 100 µM and the TGI [8] was over 100 µM. The TGI [9] was over 100 µM, the TGI [10] was over 100 µM and the TGI [11] was over 100 µM. For the same molecule, the TGI [12] was over 100 µM.
`COCc1nc2c(OC)cc(-c3nc4nc(N5CCN(C)CC5)ccc4[nH]3)c(OC)c2[nH]1` was tested, and the TGI [1] was 75.9 µM, the TGI [2] was over 100 µM and the TGI [3] was over 100 µM. The TGI [13] was over 100 µM, the TGI [14] was over 100 µM and the TGI [4] was over 100 µM. The TGI [6] was over 100 µM, the TGI [8] was 38.8 µM and the TGI [9] was over 100 µM. The TGI [10] was over 100 µM, the TGI [11] was 61 µM and the TGI [12] was over 100 µM.
`CC1C(=O)OC2CC[N+]3(CC(=O)c4ccc(Br)cc4)CC=C(COC(=O)C(C)(O)C1(C)O)C23` (configuration not stated) gave a TGI [1] of over 375 µM, a TGI [2] of over 375 µM and a TGI [3] of over 375 µM. For the same molecule, the TGI [13] was over 375 µM, the TGI [14] was over 375 µM and the TGI [4] was over 375 µM. The TGI [5] was over 375 µM, the TGI [6] was over 375 µM and the TGI [7] was over 375 µM. For the same molecule, the TGI [8] was over 375 µM, the TGI [9] was over 375 µM and the TGI [10] was over 375 µM. The TGI [11] was over 375 µM and the TGI [12] was over 375 µM.
Molecule `CN(C)c1ccc(/C=C2/SC(=S)NC2=O)cc1` has a TGI [1] of over 100 µM, a TGI [2] of over 100 µM and a TGI [3] of over 100 µM. It also gave a TGI [13] of over 100 µM, a TGI [14] of over 100 µM and a TGI [4] of over 100 µM. The TGI [5] was over 100 µM, the TGI [6] was over 100 µM and the TGI [7] was over 100 µM. For the same molecule, the TGI [8] was over 100 µM, the TGI [9] was over 100 µM and the TGI [10] was over 100 µM. It also gave a TGI [11] of over 100 µM and a TGI [12] of over 100 µM.
With `S=C1SC(=Nc2ccccc2)C(=Nc2ccccc2)N1c1ccccc1` the TGI [1] was over 100 µM, the TGI [13] was over 100 µM and the TGI [14] was over 100 µM. The TGI [4] was over 100 µM, the TGI [5] was over 100 µM and the TGI [8] was over 100 µM. The TGI [9] was 73.7 µM, the TGI [10] was over 100 µM and the TGI [12] was over 100 µM.
Molecule `O=c1[nH]c(Nc2ccc(F)c(Cl)c2)nc2nc[nH]c12` has a TGI [1] of over 100 µM, a TGI [2] of over 100 µM and a TGI [3] of over 100 µM. The TGI [13] was over 100 µM, the TGI [14] was over 100 µM and the TGI [4] was over 100 µM. For the same molecule, the TGI [5] was over 100 µM, the TGI [6] was over 100 µM and the TGI [7] was over 100 µM. It also gave a TGI [8] of over 100 µM, a TGI [9] of 97.8 µM and a TGI [10] of over 100 µM. The TGI [11] was over 100 µM and the TGI [12] was over 100 µM.
`Cc1cc(NC(=S)Nc2ccccc2)c(NC(=S)Nc2ccccc2)cc1C` gave a TGI [1] of over 74.9 µM, a TGI [2] of over 100 µM and a TGI [3] of 5.23 µM. The TGI [13] was over 100 µM, the TGI [14] was 32.4 µM and the TGI [4] was 28.9 µM. It also gave a TGI [5] of 40.4 µM, a TGI [6] of over 100 µM and a TGI [7] of 50.6 µM. For the same molecule, the TGI [8] was over 100 µM, the TGI [9] was over 94.7 µM and the TGI [10] was over 63.4 µM. For the same molecule, the TGI [11] was over 100 µM and the TGI [12] was over 74.6 µM.
For `N#C[S-].[Nd+3].c1cnc2c(c1)ccc1cccnc12.c1cnc2c(c1)ccc1cccnc12.c1cnc2c(c1)ccc1cccnc12`, the TGI [1] was 3.85 µM, the TGI [2] was 18.7 µM and the TGI [13] was 5.91 µM. It also gave a TGI [14] of 18.1 µM, a TGI [5] of over 100 µM and a TGI [6] of 43 µM. The TGI [7] was 14 µM, the TGI [8] was 14.1 µM and the TGI [9] was 26.2 µM. It also gave a TGI [10] of 12.4 µM and a TGI [12] of 11.2 µM.
`CC1=C(C)C(=O)O[C@@H]([C@](C)(O)[C@]2(O)CC[C@@]3(O)[C@@H]4C[C@H]5O[C@]56[C@@H](O)C=CC(=O)[C@]6(C)[C@H]4CC[C@]23C)C1` was tested, and the GI50 [2] was 2.5 µM and 0.404 µM, the TGI [2] was 3.36 µM and 1.76 µM and the GI50 [3] was 0.0665 µM and 0.053 µM. The TGI [13] was 22 µM, the GI50 [14] was 0.0804 µM and 0.0721 µM and the TGI [14] was 2.16 µM and 1 µM. For the same molecule, the GI50 [4] was 9.65 µM and 6.24 µM, the TGI [4] was 131 µM and 57.5 µM and the GI50 [6] was 1.3 µM and 0.381 µM. For the same molecule, the TGI [7] was 6.13 µM, the TGI [8] was 2.18 µM and the TGI [9] was 0.884 µM. The GI50 [10] was 2.51 µM, the TGI [10] was 6.71 µM and 6.54 µM and the TGI [11] was 3.84 µM. For the same molecule, the TGI [12] was 6.36 µM.
`C[n+]1c2ccccc2c(CNc2ccc(S(=O)(=O)N=C(N)N)cc2)c2ccccc21` gave a TGI [1] of 7.16 µM, a TGI [2] of 64.1 µM and a TGI [3] of 7.47 µM. The TGI [13] was 10.9 µM, the TGI [14] was 32.3 µM and the TGI [5] was 23.5 µM. For the same molecule, the TGI [6] was over 100 µM, the TGI [7] was 17 µM and the TGI [8] was 22.8 µM. The TGI [9] was 39.9 µM, the TGI [11] was 41.3 µM and the TGI [12] was 45.5 µM.
With `CC(C)=CC1C(COC(=O)c2cc3c(cc2Cl)OCO3)C1(C)C` (configuration not stated) the TGI [1] was over 100 µM, the TGI [2] was over 100 µM and the TGI [3] was 47.6 µM. It also gave a TGI [13] of 91.2 µM, a TGI [14] of 46.4 µM and a TGI [4] of over 100 µM. For the same molecule, the TGI [6] was 65.8 µM, the TGI [8] was 39.6 µM and the TGI [10] was 86 µM. It also gave a TGI [11] of over 100 µM and a TGI [12] of over 100 µM.
